Measured values from the Deep4Chem optical property database.

Test: solvent given as SMILES

Compound: CN(CC(O)c1cccc(O)c1)c1ccc([N+](=O)[O-])c(C2CC(c3cccc4ccccc34)=NN2c2ccccc2)c1 (stereo unspecified)
- absorption maximum (in C1CCCCC1): 400 nm
- absorption maximum (in C1CCOC1): 411 nm
- absorption maximum (in C1COCCO1): 396 nm
- absorption maximum (in CC#N): 402 nm
- absorption maximum (in CC(C)O): 412 nm
- absorption maximum (in CCOC(C)=O): 418 nm
- absorption maximum (in CCOCC): 405 nm
- absorption maximum (in CO): 409 nm
- absorption maximum (in Cc1ccccc1): 414 nm
- absorption maximum (in ClC(Cl)Cl): 369 nm
- absorption maximum (in O): 406 nm

Compound: CCN(CC)c1ccc2c(-c3ccccc3C(=O)O)c3c([o+]c2c1)/C(=C/C=C/c1ccc(N(C)C)cc1)CCC3
- absorption maximum (in ClCCl): 749 nm

Compound: O=C1c2ccccc2-c2c(-c3cc(Cl)ccc3O)[nH]c(=O)n21
- absorption maximum (in CC#N): 390 nm
- absorption maximum (in CO): 393 nm
- absorption maximum (in ClCCl): 395 nm

Compound: Fc1ccccc1N1c2c(sc3ccccc23)Sc2sc3ccccc3c21
- absorption maximum (in ClCCl): 353 nm

Compound: COC(=O)C(NC(=O)CCNc1cccc2ccccc12)C(C)C (stereo unspecified)
- absorption maximum (in CCO): 330 nm

Compound: C(=C\c1nc(/C=C/c2ccc(N(c3ccccc3)c3ccccc3)cc2)cc(/C=C/c2ccc(N(c3ccccc3)c3ccccc3)cc2)n1)/c1ccccc1
- absorption maximum (in ClCCl): 430 nm

Compound: COCCOCCOCCOCC(COCCOCCOCCOC)Oc1cc(/C=C/c2ccc(/C=C/[N+](=O)[O-])cc2)c(OC(COCCOCCOCCOC)COCCOCCOCCOC)cc1/C=C/c1ccc(/C=C/[N+](=O)[O-])cc1
- absorption maximum (in ClCCl): 447 nm

Compound: O=c1c2cc(S(=O)(=O)O)ccc2[nH]c2ccc(S(=O)(=O)O)cc12
- absorption maximum (in CS(C)=O): 399 nm
- absorption maximum (in O): 396 nm

Compound: Cc1nc(-c2ccc(N3c4ccccc4C(c4ccccc4)(c4ccccc4)c4ccccc43)cc2)cc(-c2ccc(N3c4ccccc4C(c4ccccc4)(c4ccccc4)c4ccccc43)cc2)n1
- absorption maximum (in Cc1ccccc1): 370 nm

Compound: CCOC(=O)c1c(-c2cc3ccccc3oc2=O)nn(-c2cccc(C)c2)c1C(=O)OCC
- absorption maximum (in ClCCl): 321 nm

Compound: N#Cc1nnn(-c2ccnc3cc(Cl)ccc23)c1N
- absorption maximum (in C1CCCCC1): 326.01 nm
- absorption maximum (in C1CCOC1): 364.05 nm
- absorption maximum (in C1COCCO1): 365.68 nm
- absorption maximum (in CC#N): 381.45 nm
- absorption maximum (in CCOC(C)=O): 364.01 nm
- absorption maximum (in CN(C)C=O): 376.7 nm
- absorption maximum (in CO): 386.62 nm
- absorption maximum (in CS(C)=O): 368.79 nm
- absorption maximum (in ClC(Cl)Cl): 385 nm

Compound: CCCCn1c2ccc(/C=C(\C#N)c3ccc([N+](=O)[O-])cc3)cc2c2cc(Cn3c(-c4ccc5c(c4)c4ccccc4n5CCCC)nc4ccccc43)ccc21
- absorption maximum (in C1CCOC1): 410 nm
- absorption maximum (in CC#N): 416 nm
- absorption maximum (in CCO): 416 nm
- absorption maximum (in CCOC(C)=O): 408 nm
- absorption maximum (in CN(C)C=O): 423 nm
- absorption maximum (in ClCCl): 417 nm
- absorption maximum (in O): 434 nm
- absorption maximum (in c1ccccc1): 409 nm

Compound: Cc1cc(O)c(C(C)C)cc1/N=C/c1ccc(O)cc1
- absorption maximum (in C1CCCCC1): 339 nm
- absorption maximum (in C1CCOC1): 342 nm
- absorption maximum (in C1COCCO1): 341 nm
- absorption maximum (in CC#N): 334 nm
- absorption maximum (in CC(C)(C)O): 345 nm
- absorption maximum (in CC(C)O): 340 nm
- absorption maximum (in CCCCCC): 339 nm
- absorption maximum (in CCCCO): 340 nm
- absorption maximum (in CCO): 340 nm
- absorption maximum (in CCOC(C)=O): 340 nm
- absorption maximum (in CN(C)C=O): 344 nm
- absorption maximum (in CO): 341 nm
- absorption maximum (in CS(C)=O): 346 nm
- absorption maximum (in ClC(Cl)Cl): 337 nm
- absorption maximum (in ClCCl): 335 nm
- absorption maximum (in O): 342 nm
- absorption maximum (in OCCO): 342 nm

Compound: COc1ccc(NC(=O)C(C(=O)Nc2ccc(OC)cc2)C(c2ccccc2O)c2c(C)[nH]c3ccccc23)cc1 (stereo unspecified)
- absorption maximum (in CO): 258 nm
- absorption maximum (in CS(C)=O): 266 nm

Compound: Cc1ccc2c3ccc(C)cc3c3cc4c(C)cc(=O)oc4cc3c2c1
- absorption maximum (in ClC(Cl)Cl): 386 nm

Compound: COc1cc(N(c2ccccc2)c2ccccc2)ccc1C=C(C#N)C#N
- absorption maximum (in C1COCCO1): 436 nm
- absorption maximum (in CC#N): 440 nm
- absorption maximum (in CC(C)=O): 440 nm
- absorption maximum (in CCOC(C)=O): 439 nm
- absorption maximum (in CN(C)C=O): 445 nm
- absorption maximum (in CO): 442 nm
- absorption maximum (in Cc1ccccc1): 443 nm
- absorption maximum (in ClC(Cl)Cl): 449 nm
- absorption maximum (in ClCCl): 446 nm

Compound: CC1=CC(C)=[N+]2C1=C(c1ccc(I)cc1)c1c(C)cc(C)n1[B-]2(Oc1ccc([N+](=O)[O-])cc1)Oc1ccc([N+](=O)[O-])cc1
- absorption maximum (in ClC(Cl)Cl): 505 nm

Compound: CCCCCc1ccc(-c2ccc(C#Cc3cc(C#Cc4ccc(-c5ccc(CCCCC)cc5)cc4)c4ccc5c(C(=O)c6ccccc6)cc(C#Cc6ccc(-c7ccc(CCCCC)cc7)cc6)c6ccc3c4c65)cc2)cc1
- absorption maximum (in ClCCl): 466 nm

Compound: O=C(O)CCCc1cc(C#Cc2ccccc2)c2ccc3c(C#Cc4ccccc4)cc(C#Cc4ccccc4)c4ccc1c2c34
- absorption maximum (in CS(C)=O): 451 nm
- absorption maximum (in ClC(Cl)(Cl)Cl): 445 nm

Compound: Cc1ccc(-c2cc(/C=C/c3ccc(N(c4ccccc4)c4ccccc4)cc3)c(C#N)c(N3CCCCC3)c2)cc1
- absorption maximum (in CS(C)=O): 401 nm

Compound: FC(F)(F)c1ccccc1B1c2ccccc2Nc2ccccc21
- absorption maximum (in ClCCl): 386 nm

Compound: O=[N+]([O-])c1ccc(F)cc1C1CC(c2cccc3ccccc23)=NN1c1ccccc1 (stereo unspecified)
- absorption maximum (in C1CCCCC1): 365 nm
- absorption maximum (in C1CCOC1): 374 nm
- absorption maximum (in C1COCCO1): 372 nm
- absorption maximum (in CC#N): 367 nm
- absorption maximum (in CC(C)O): 370 nm
- absorption maximum (in CCOC(C)=O): 371 nm
- absorption maximum (in CCOCC): 363 nm
- absorption maximum (in CO): 372 nm
- absorption maximum (in Cc1ccccc1): 368 nm
- absorption maximum (in ClC(Cl)Cl): 363 nm
- absorption maximum (in O): 375 nm
